{
  "source": "paper PMC5863496",
  "about": "“Mesobuthus Venom-Derived Antimicrobial Peptides Possess Intrinsic Multifunctionality and Differential Potential as Drugs” (Frontiers in Microbiology, 2018)",
  "key": {"S. aureus PRSA P1383": {"tested_on": "S. aureus PRSA P1383", "assay": "Killing kinetics", "format": "cell-based, Staphylococcus aureus", "conditions": "5x CL (20 μg/ml)", "experimental": "The in vitro killing curve for MeuTXKβ1 was determined against the bacterium S. aureus PRSA P1383. For the assay, a single fresh colony was inoculated into LB (Luria-Bertani) medium (10 g tryptone, 5 g yeast extract, and 5 g NaCl in 1 l of H2O) and incubated at 37°C until OD600 of 0.2. The initial concentration used was 4 × 10^7 cells/ml. Samples for colony counts were taken at time 0, 5, 10, 15, 20, 30, and 60 min after addition of peptides. Results are given as colony-forming units (CFUs) per milliliter."}, "Stability in H2O": {"assay": "Stability in H2O", "format": "physicochemical", "conditions": "37°C, read-out inhibition zone on S. aureus PRSA P1383 plates", "experimental": "(§1) To assess serum stability, peptides were dissolved in H2O or fresh mouse serum for the indicated times at 37°C and their residual activity was measured by the inhibition-zone assay (Hultmark, [1998])."}, "[1]": {"tested_on": "penicillin-resistant Staphylococcus aureus P1383", "assay": "Inhibition-zone assay (CL)", "format": "cell-based", "conditions": "concentration used in killing kinetics and membrane permeation", "experimental": "(§2) The antimicrobial activity of seven peptides, including MeuFSPL-1, MeuFSPL-2, Marmelittin, Melittin, Meucin-22, Marcin-22, and MeuTXKβ1, was evaluated by the inhibition-zone assay previously described in our studies (Hultmark, [1998]; Zhu et al., [2012a]; Zhu and Gao, [2014]). Temperatures used were 30 or 37°C for bacteria or 28°C for fungi. Media used were Luria-Bertani (LB) Broth (10 g tryptone, 5 g yeast extract, and 5 g NaCl in 1 l of water) or Nutrient Broth (10 g peptone, 5 g beef extract powder, and 5 g NaCl in 1 l of water) or GYM(Isp2) (4 g yeast extract, 10 g malt extract, 4 g glucose, 2 g CaCO3 in 1 l of water) for bacteria or Potato Dextrose Broth (200 g patato and 20 g glucose in 1 l of water) for fungi. To make plates, 10 μl of microbial culture (~2 × 10^6 bacterial cells or fungal spores/ml) were mixed in 6 ml of medium containing 0.8% agar and poured into Peri dishes of 9.0 cm diameter. Wells with a diameter of 2 mm were punched into the medium, filled with 2 μl of sample each well. In this assay, three different doses of peptides were applied to three independent wells in one standard bacterial plate. After incubation overnight, inhibition zones were measured and used to calculate lethal concentrations (CL), a concentration just sufficient to inhibit bacterial growth (Hultmark, [1998]; Gao et al., [2009]). CL values are calculated from a plot of d^2 against log n, where d is the diameter (in cm) and n is the amount of sample applied in the well (in nmol). The plot is linear and thus CL can be calculated from the slope (k) and the intercept (m) of this plot. The formula used here is CL = 2.93/ak10^m/k, where “a” is the thickness of the bacterial plate and “CL” is in μM."}, "Serum stability": {"assay": "Serum stability", "format": "in vitro ADME", "conditions": "fresh mouse serum, 37°C, read-out inhibition zone on S. aureus PRSA P1383 plates", "experimental": "as §1"}, "[2]": {"tested_on": "Streptomyces scabiei CGMCC 4.1765", "assay": "Inhibition-zone assay (CL)", "format": "cell-based", "conditions": "SSCA CGMCC 4.1765, N.A. = no activity at 0.8 nmol peptide each well", "experimental": "as §2"}, "[3]": {"tested_on": "Staphylococcus aureus J700", "assay": "Inhibition-zone assay (CL)", "format": "cell-based", "conditions": "SA J700, N.A. = no activity at 0.8 nmol peptide each well", "experimental": "as §2"}, "[4]": {"tested_on": "Streptococcus sanguinis ATCC 1.2497", "assay": "Inhibition-zone assay (CL)", "format": "cell-based", "conditions": "SSAN ATCC 1.2497, N.A. = no activity at 0.8 nmol peptide each well", "experimental": "as §2"}, "[5]": {"tested_on": "methicillin-sensitive Staphylococcus aureus CGMCC 1.89", "assay": "Inhibition-zone assay (CL)", "format": "cell-based", "conditions": "MSSA CGMCC 1.89, N.A. = no activity at 0.8 nmol peptide each well", "experimental": "as §2"}, "[6]": {"tested_on": "Streptococcus salivarius ATCC 1.2498", "assay": "Inhibition-zone assay (CL)", "format": "cell-based", "conditions": "SSAL ATCC 1.2498, N.A. = no activity at 0.8 nmol peptide each well", "experimental": "as §2"}, "[7]": {"tested_on": "Stenotrophomonas maltophilia CGMCC 1.1788", "assay": "Inhibition-zone assay (CL)", "format": "cell-based", "conditions": "SMAL CGMCC 1.1788, N.A. = no activity at 0.8 nmol peptide each well", "experimental": "as §2"}, "[8]": {"tested_on": "penicillin-sensitive Staphylococcus epidermidis P1111", "assay": "Inhibition-zone assay (CL)", "format": "cell-based", "conditions": "PSSE P1111, N.A. = no activity at 0.8 nmol peptide each well", "experimental": "as §2"}, "[9]": {"tested_on": "Staphylococcus aureus J708", "assay": "Inhibition-zone assay (CL)", "format": "cell-based", "conditions": "SA J708, N.A. = no activity at 0.8 nmol peptide each well", "experimental": "as §2"}, "[10]": {"tested_on": "Staphylococcus aureus J710", "assay": "Inhibition-zone assay (CL)", "format": "cell-based", "conditions": "SA J710, N.A. = no activity at 0.8 nmol peptide each well", "experimental": "as §2"}, "[11]": {"tested_on": "Staphylococcus aureus J706", "assay": "Inhibition-zone assay (CL)", "format": "cell-based", "conditions": "SA J706, N.A. = no activity at 0.8 nmol peptide each well", "experimental": "as §2"}, "[12]": {"tested_on": "Staphylococcus warneri ATCC 1.2824", "assay": "Inhibition-zone assay (CL)", "format": "cell-based", "conditions": "SW ATCC 1.2824, N.A. = no activity at 0.8 nmol peptide each well", "experimental": "as §2"}, "[13]": {"tested_on": "Streptomyces griseus NBRC 13350", "assay": "Inhibition-zone assay (CL)", "format": "cell-based", "conditions": "SG NBRC 13350, N.A. = no activity at 0.8 nmol peptide each well", "experimental": "as §2"}, "[14]": {"tested_on": "methicillin-resistant coagulase-negative Staphylococcus P1369", "assay": "Inhibition-zone assay (CL)", "format": "cell-based", "conditions": "MRCNS P1369, N.A. = no activity at 0.8 nmol peptide each well", "experimental": "as §2"}, "[15]": {"tested_on": "Staphylococcus aureus J685", "assay": "Inhibition-zone assay (CL)", "format": "cell-based", "conditions": "SA J685, N.A. = no activity at 0.8 nmol peptide each well", "experimental": "as §2"}, "[16]": {"tested_on": "Bacillus subtilis CGMCC 1.2428", "assay": "Inhibition-zone assay (CL)", "format": "cell-based", "conditions": "BS CGMCC 1.2428, N.A. = no activity at 0.8 nmol peptide each well", "experimental": "as §2"}, "[17]": {"tested_on": "Staphylococcus aureus J698", "assay": "Inhibition-zone assay (CL)", "format": "cell-based", "conditions": "SA J698, N.A. = no activity at 0.8 nmol peptide each well", "experimental": "as §2"}, "[18]": {"tested_on": "penicillin-resistant Staphylococcus epidermidis P1389", "assay": "Inhibition-zone assay (CL)", "format": "cell-based", "conditions": "PRSE P1389, N.A. = no activity at 0.8 nmol peptide each well", "experimental": "as §2"}, "[19]": {"tested_on": "Streptococcus mutans ATCC 1.2499", "assay": "Inhibition-zone assay (CL)", "format": "cell-based", "conditions": "SM ATCC 1.2499, N.A. = no activity at 0.8 nmol peptide each well", "experimental": "as §2"}, "[20]": {"conditions": "24 h, three independent experiments"}},
  "note": "Ends that are not written are not given here.",
  "data": [
    {"molecule": "CN[C@H](CC(C)C)C(=O)N[C@H]1C(=O)N[C@@H](CC(N)=O)C(=O)N[C@H]2C(=O)N[C@H]3C(=O)N[C@H](C(=O)N[C@H](C(=O)O)c4cc(O)cc(O)c4-c4cc3ccc4O)[C@H](O)c3ccc(c(Cl)c3)Oc3cc2cc(c3O[C@@H]2O[C@H](CO)[C@@H](O)[C@H](O)[C@H]2O[C@H]2C[C@](C)(N)[C@H](O)[C@H](C)O2)Oc2ccc(cc2Cl)[C@H]1O", "note": "[vancomycin]", "values": [
      {"measurement": "killing rate compared with MeuTXKβ1", "setting": "S. aureus PRSA P1383", "value": "slower killing rate"},
      {"measurement": "residual activity after incubation in H2O", "setting": "Stability in H2O; 6 h", "value": "remained its full activity"},
      {"measurement": "residual activity after incubation in H2O", "setting": "Stability in H2O; [20]", "value": "completely lose"},
      {"measurement": "5x CL for P1383", "setting": "[1]", "value": 20, "unit": "µg/mL"},
      {"measurement": "residual activity after incubation in mouse serum", "setting": "Serum stability; 6 h", "value": "remained its full activity"},
      {"measurement": "residual activity after incubation in mouse serum", "setting": "Serum stability; [20]", "value": "completely lose"}
    ]},
    {"molecule": "IFGAIAGLLKNIF-NH2 [MUC-13, reference compound]", "values": [
      {"measurement": "Lethal concentration (CL)", "setting": "[2]", "value": 15.07, "unit": "µM"},
      {"measurement": "Lethal concentration (CL)", "setting": "[3]", "value": 7.54, "unit": "µM"},
      {"measurement": "Lethal concentration (CL)", "setting": "[4]", "value": 6.24, "unit": "µM"},
      {"measurement": "Lethal concentration (CL)", "setting": "[5]", "value": 10.24, "unit": "µM"},
      {"measurement": "Lethal concentration (CL)", "setting": "[6]", "value": 7.54, "unit": "µM"},
      {"measurement": "Lethal concentration (CL)", "setting": "[7]", "value": 4.89, "unit": "µM"},
      {"measurement": "Lethal concentration (CL)", "setting": "[8]", "value": 10.24, "unit": "µM"},
      {"measurement": "Lethal concentration (CL)", "setting": "[9]", "value": 7.54, "unit": "µM"},
      {"measurement": "Lethal concentration (CL)", "setting": "[10]", "value": 7.10, "unit": "µM"},
      {"measurement": "Lethal concentration (CL)", "setting": "[11]", "value": 5.67, "unit": "µM"},
      {"measurement": "Lethal concentration (CL)", "setting": "[12]", "value": 6.24, "unit": "µM"},
      {"measurement": "Lethal concentration (CL)", "setting": "[13]", "value": 53.31, "unit": "µM"},
      {"measurement": "Lethal concentration (CL)", "setting": "[14]", "value": 33.80, "unit": "µM"},
      {"measurement": "Lethal concentration (CL)", "setting": "[15]", "value": 10.16, "unit": "µM"},
      {"measurement": "Lethal concentration (CL)", "setting": "[16]", "value": 6.24, "unit": "µM"},
      {"measurement": "Lethal concentration (CL)", "setting": "[17]", "value": 7.54, "unit": "µM"},
      {"measurement": "Lethal concentration (CL)", "setting": "[18]", "value": 24.06, "unit": "µM"},
      {"measurement": "Lethal concentration (CL)", "setting": "[19]", "value": 10.24, "unit": "µM"}
    ]}
  ]
}
